Results on 31 molecules are retold here after US20250304576A1 (Cancer Research Technology Limited, priority 2022, published 2025).

Structures are written as SMILES.

The first assay has as its target T1, CHUK (IKK alpha) (Homo sapiens, UniProt O15111).
T1 construct: purchased Life Technologies (assay performed by the vendor)
T1 sequence (O15111 1-745): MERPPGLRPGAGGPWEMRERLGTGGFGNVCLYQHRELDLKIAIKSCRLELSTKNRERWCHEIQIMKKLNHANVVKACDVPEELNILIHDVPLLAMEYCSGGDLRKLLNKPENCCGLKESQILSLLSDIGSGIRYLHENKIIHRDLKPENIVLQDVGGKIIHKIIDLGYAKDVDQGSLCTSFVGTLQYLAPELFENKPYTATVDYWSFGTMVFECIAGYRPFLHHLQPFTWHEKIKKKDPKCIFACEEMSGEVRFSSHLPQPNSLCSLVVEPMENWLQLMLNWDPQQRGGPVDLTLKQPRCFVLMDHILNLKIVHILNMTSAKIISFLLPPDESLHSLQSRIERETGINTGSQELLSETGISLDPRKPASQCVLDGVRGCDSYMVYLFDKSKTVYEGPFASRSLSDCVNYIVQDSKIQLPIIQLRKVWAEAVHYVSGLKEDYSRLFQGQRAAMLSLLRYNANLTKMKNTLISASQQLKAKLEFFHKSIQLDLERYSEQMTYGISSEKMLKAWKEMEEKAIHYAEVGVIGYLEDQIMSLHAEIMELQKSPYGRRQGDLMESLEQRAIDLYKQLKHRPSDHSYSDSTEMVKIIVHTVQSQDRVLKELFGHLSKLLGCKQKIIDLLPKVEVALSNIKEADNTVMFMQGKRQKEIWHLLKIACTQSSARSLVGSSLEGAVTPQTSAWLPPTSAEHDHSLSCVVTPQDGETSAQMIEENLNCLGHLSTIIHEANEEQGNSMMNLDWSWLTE
Nature of the assay: Adapta IKKα assay (TR-FRET ADP formation, Life Technologies). Format: biochemical. Conditions: Adapta assay. As for the experimental part:
IKKα and IKKβ inhibitory activity was determined using three different assays: a dissociation enhanced ligand fluorescent immunoassay (DELFIA) based on the protocol of HTScan™ IKKβ Kinase Assay (Cell Signaling Technology, USA); an Adapta IKKα assay (performed by Life Technologies); a Z′-LYTE™ IKKβ assay (performed by Life Technologies).
The reaction was performed in low-volume white 384-well plates (Corning model 4512).
The test compounds were screened in 1% DMSO (final) in the well. For 10 point titrations, 3-fold serial dilutions were conducted from the starting concentration of 50 mM.
The 2× CHUK (IKK alpha) kinase was prepared in 50 mM HEPES pH 7.5, 0.01% BRIJ-35, 10 mM MgCl2 and 1 mM EGTA. The final 10 μL kinase mixture consisted of 50-250 ng CHUK (IKK alpha) in 32.5 mM HEPES pH 7.5, 0.005% BRIJ-35, 5 mM MgCl2 and 0.5 mM EGTA. No substrate was required, as the assay measures the ability of a compound to inhibit the kinase's intrinsic ATPase activity.
5 μL of 2× Kinase mixture was incubated with 2.5 μL of ATP solution diluted to a 4×working concentration in water, in the presence of 100 nL of 100× test compound in 100% DMSO and 2.4 μL of 30 mM HEPES buffer.
After 30-second plate shake and 1-minute centrifuge at 1000×g, the resulting kinase reaction was allowed to incubate for 1 hour at room temperature before 5 μL of Detection Mix was added.
The Detection Mix, previously prepared in TR-FRET Dilution Buffer, consisted of EDTA (30 mM), Eu-anti-ADP antibody (6 nM) and an Alexa Fluor™ 647 labelled ADP tracer. The Detection Mix contained the EC60 concentration of tracer for 5-150 μM ATP.
After 30-second plate shake and 1-minute centrifuge at 1000×g, the Detection Mix was allowed to equilibrate at room temperature for 1 hour. Then the plate was read using a fluorescence plate reader configured for Adapta™ TR-FRET and the data analysed.
ADP formation was determined by calculating the emission ratio from the assay well. Therefore, the emission ratio was calculated by dividing the intensity of the tracer (acceptor) emission by the intensity of the Eu (donor) emission at 615 nm as shown in the equation below.
The IKKα and IKKb figures quoted in italicised form are from the Adapta assay described above.
On the technique in general: In TR-FRET formats the signal depends on donor and acceptor labels being close together.
Broadly, the IC50 is the concentration needed to halve the response being measured. A high value points to weaker potency in that assay. The molecule `CC(C)(C)C#Cc1c(-c2ccc3[nH]nc(N)c3c2)ccnc1N` [Example 72, 5-(2-Amino-3-(3,3-dimethylbut-1-yn-1-yl)pyridine-4-yl)-1H-indazol-3-amine] gave an IC50 of 1 nM. This counts as single-digit nanomolar. Still for that read-out and setting: then `Nc1nccc(-c2ccc3[nH]nc(N)c3c2)c1C#CC1CCCC1` [Example 73, 5-(2-Amino-3-(cyclopentylethynyl)pyridine-4-yl)-1H-indazol-3-amine], with 2 nM. Same read-out and setting: then `Nc1nccc(-c2ccc3[nH]nc(N)c3c2)c1C#CC1CCCCC1` [Example 74, 5-(2-Amino-3-(cyclohexylethynyl)pyridine-4-yl)-1H-indazol-3-amine], with 3 nM.

In turn, `Nc1nccc(-c2ccc3[nH]nc(N)c3c2)c1C#Cc1ccccc1` [Example 75, 5-(2-Amino-3-(phenylethynyl)pyridine-4-yl)-1H-indazol-3-amine] yielded an IC50 of 1 nM. Against the preceding molecule, the IC50 is about 3-fold lower. On the same count and under the same terms, as for `Nc1nccc(-c2ccc3[nH]nc(N)c3c2)c1C#CCO` [Example 83, 3-(2-Amino-4-(3-amino-1H-indazol-5-yl)pyridine-3-yl)prop-2-yn-1-ol], the figure is 1 nM. As for `Nc1nccc(-c2ccc3[nH]nc(N)c3c2)c1C#CCCO` [Example 84, 4-(2-Amino-4-(3-amino-1H-indazol-5-yl)pyridine-3-yl)but-3-yn-1-ol], the IC50 is 1 nM. Same read-out and setting: as for `Nc1nccc(-c2ccc3[nH]nc(N)c3c2)c1C#CCCCO` [Example 85, 5-(2-Amino-4-(3-amino-1H-indazol-5-yl)pyridine-3-yl)pent-4-yn-1-ol], the figure is 1 nM; as for `CC(C)(O)C#Cc1c(-c2ccc3[nH]nc(N)c3c2)ccnc1N` [Example 87, 4-(2-Amino-4-(3-amino-1H-indazol-5-yl)pyridine-3-yl)-2-methylbut-3-yn-2-ol], 4 nM; as for `CC(C)(C)OCC#Cc1c(-c2ccc3[nH]nc(N)c3c2)ccnc1N` [Example 88, 5-(2-Amino-3-(3-(tert-butoxy)prop-1-yn-1-yl)pyridine-4-yl)-1H-indazol-3-amine], 8 nM. Same read-out and setting: then `Nc1nccc(-c2ccc3[nH]nc(N)c3c2)c1C#CC1(O)CCCCC1` [Example 90, 1-((2-Amino-4-(3-amino-1H-indazol-5-yl)pyridine-3-yl)ethynyl)cyclohexan-1-ol], with 3 nM; and `Nc1nccc(-c2ccc3[nH]nc(N)c3c2)c1C#CC1(O)CCCCCC1` [Example 91, 1-((2-Amino-4-(3-amino-1H-indazol-5-yl)pyridine-3-yl)ethynyl)cycloheptan-1-ol], with 7 nM; and `CC(C)(N)C#Cc1c(-c2ccc3[nH]nc(N)c3c2)ccnc1N` [Example 92, 5-(2-Amino-3-(3-amino-3-methylbut-1-yn-1-yl)pyridin-4-yl)-1H-indazol-3-amine], with 6 nM.

For the molecule `Nc1nccc(-c2ccc3[nH]nc(N)c3c2)c1C#CCCN1CCCCC1` [Example 93, 5-(2-Amino-3-(4-(piperidin-1-yl)but-1-yn-1-yl)pyridin-4-yl)-1H-indazol-3-amine], the IC50 amounted to 7 nM. Still for that read-out and setting: then `Nc1nccc(-c2ccc3[nH]nc(N)c3c2)c1C#CCCCN1CCCCC1` [Example 95, 5-(2-Amino-3-(5-(piperidin-1-yl)pent-1-yn-1-yl)pyridin-4-yl)-1H-indazol-3-amine], with 12 nM; and `Nc1nccc(-c2ccc3[nH]nc(N)c3c2)c1C#CCCCN1CCOCC1` [Example 96, 5-(2-Amino-3-(5-morpholinopent-1-yn-1-yl)pyridin-4-yl)-1H-indazol-3-amine], with 21 nM; and `Nc1nccc(-c2ccc3[nH]nc(N)c3c2)c1C#CCCC(=O)N1CCOCC1` [Example 99, 5-(2-Amino-4-(3-amino-1H-indazol-5-yl)pyridine-3-yl)-1-morpholinopent-4-yn-1-one], with 3 nM. Still for that read-out and setting: as for `Nc1cc(-c2cc(-c3ccccc3)c3[nH]nc(N)c3c2)ccn1` [Example 104, 5-(2-Aminopyridin-4-yl)-7-phenyl-1H-indazol-3-amine], the figure is 3 nM. The same measure, in the same setting: as for `Nc1cc(-c2cc(-c3ccoc3)c3[nH]nc(N)c3c2)ccn1` [Example 129, 5-(2-Aminopyridin-4-yl)-7-(furan-3-yl)-1H-indazol-3-amine], the figure is 5 nM; as for `CC(C)(O)C#Cc1cc(-c2ccnc(N)c2)cc2c(N)n[nH]c12` [Example 140, 4-(3-Amino-5-(2-aminopyridin-4-yl)-1H-indazol-7-yl)-2-methylbut-3-yn-2-ol], 39 nM.

The assay is the same for the next values; noted with them: Adapta assay (second line of an example).
The molecule `C#Cc1cc(-c2ccnc3[nH]ccc23)cc2c(N)n[nH]c12` [Example 200, 7-Ethynyl-5-(1H-pyrrolo[2,3-b]pyridin-4-yl)-1H-indazol-3-amine] returned a half-inhibitory concentration (IC50) of 3.3 nM. This lies in the single-digit nanomolar range. The same measure, in the same setting: then `CC(C)(C)C#Cc1cc(-c2ccnc3[nH]ccc23)cc2c(N)n[nH]c12` [Example 201, 7-(3,3-Dimethylbut-1-yn-1-yl)-5-(1H-pyrrolo[2,3-b]pyridin-4-yl)-1H-indazol-3-amine], with 11 nM. The same measure, in the same setting: as for `Nc1n[nH]c2c(C#CC3CC3)cc(-c3ccnc4[nH]ccc34)cc12` [Example 202, 7-(Cyclopropylethynyl)-5-(1H-pyrrolo[2,3-b]pyridin-4-yl)-1H-indazol-3-amine], the figure is 2 nM; as for `Nc1n[nH]c2c(C#CC3CCCC3)cc(-c3ccnc4[nH]ccc34)cc12` [Example 203, 7-(Cyclopentylethynyl)-5-(1H-pyrrolo[2,3-b]pyridin-4-yl)-1H-indazol-3-amine], 16 nM. On the same count and under the same terms, then `Nc1n[nH]c2c(C#CC3CCCCC3)cc(-c3ccnc4[nH]ccc34)cc12` [Example 204, 7-(Cyclohexylethynyl)-5-(1H-pyrrolo[2,3-b]pyridin-4-yl)-1H-indazol-3-amine], with 198 nM; and `CC(C)(O)C#Cc1cc(-c2ccnc3[nH]ccc23)cc2c(N)n[nH]c12` [Example 206, 4-(3-Amino-5-(1H-pyrrolo[2,3-b]pyridin-4-yl)-1H-indazol-7-yl)-2-methylbut-3-yn-2-ol], with 9 nM; and `Nc1n[nH]c2c(C#CCCCN3CCOCC3)cc(-c3ccnc4[nH]ccc34)cc12` [Example 210, 7-(5-Morpholinopent-1-yn-1-yl)-5-(1H-pyrrolo[2,3-b]pyridin-4-yl)-1H-indazol-3-amine], with 27 nM.

Take `Nc1n[nH]c2c(C#CCCCN3CCCCC3)cc(-c3ccnc4[nH]ccc34)cc12` [Example 212, 7-(5-(Piperidin-1-yl)pent-1-yn-1-yl)-5-(1H-pyrrolo[2,3-b]pyridin-4-yl)-1H-indazol-3-amine]: the IC50 is 12 nM. This IC50 lies about 2.2-fold lower than the previous one. For `Nc1n[nH]c2ccc(-c3ccnc4[nH]c(C5CC5)cc34)cc12` [Example 218, 5-(2-Cyclopropyl-1H-pyrrolo[2,3-b]pyridin-4-yl)-1H-indazol-3-amine], the IC50 amounted to 1 nM. Compared with the last molecule, the IC50 is about 12-fold lower.

Consider `Nc1n[nH]c2ccc(-c3ccnc4[nH]c(C5CCCCC5)cc34)cc12` [Example 219, 5-(2-Cyclohexyl-1H-pyrrolo[2,3-b]pyridin-4-yl)-1H-indazol-3-amine], for which 14 nM corresponded to half-maximal inhibition (IC50). Same read-out and setting: as for `CC(C)(C)Cc1cc2c(-c3ccc4[nH]nc(N)c4c3)ccnc2[nH]1` [Example 220, 5-(2-Neopentyl-1H-pyrrolo[2,3-b]pyridin-4-yl)-1H-indazol-3-amine], the figure is 2 nM; as for `Nc1n[nH]c2ccc(-c3ccnc4[nH]c(CC5CCCCC5)cc34)cc12` [Example 221, 5-(2-(Cyclohexylmethyl)-1H-pyrrolo[2,3-b]pyridin-4-yl)-1H-indazol-3-amine], 8 nM.
